In publication PMC5218480 (PLoS ONE, 2017):

Tested on: MV-4-11 cells
Assay: Gene expression microarray analysis (Affymetrix PrimeView) and GSEA
Type: cell-based, human
Set-up: RFU PODN (11730768_x_at) / Fold change /veh PODN (11730768_x_at) / RFU LINC00158 (11744669_a_at) / Fold change /veh LINC00158 (11744669_a_at) / RFU DUSP10 (11751237_a_at) / Fold change /veh DUSP10 (11751237_a_at) / RFU ID3 (11757404_x_at) / Fold change /veh ID3 (11757404_x_at) / RFU PLEKHG5 (11737974_s_at) / Fold change /veh PLEKHG5 (11737974_s_at) / RFU LRRC4B (11730491_at) / Fold change /veh LRRC4B (11730491_at) / RFU GIMAP4 (11747438_a_at) / Fold change /veh GIMAP4 (11747438_a_at) / RFU KRT8 (11758183_x_at) / Fold change /veh KRT8 (11758183_x_at) / RFU CNN1 (11734310_a_at) / Fold change /veh CNN1 (11734310_a_at) / RFU VPS37D (11726825_at) / Fold change /veh VPS37D (11726825_at) / RFU C10orf10 (11716522_x_at) / Fold change /veh C10orf10 (11716522_x_at) / RFU KIR2DL2 /// KIR2DL4 /// KIR2DL5A /// KIR2DL5B /// KIR2DS1 /// KIR2DS2 /// KIR2DS3 /// KIR2DS4 /// KIR3DL3 /// KIR3DL3 /// KIR3DS1 (11738374_at) / Fold change /veh KIR2DL2 /// KIR2DL4 /// KIR2DL5A /// KIR2DL5B /// KIR2DS1 /// KIR2DS2 /// KIR2DS3 /// KIR2DS4 /// KIR3DL3 /// KIR3DL3 /// KIR3DS1 (11738374_at) / RFU C1QL1 (11718748_at) / Fold change /veh C1QL1 (11718748_at) / RFU TMPRSS4 (11747572_a_at) / Fold change /veh TMPRSS4 (11747572_a_at) / RFU HAMP (11756126_x_at) / Fold change /veh HAMP (11756126_x_at) / RFU RNFT2 (11725882_a_at) / Fold change /veh RNFT2 (11725882_a_at) / RFU NR4A2 (11747474_a_at) / Fold change /veh NR4A2 (11747474_a_at) / RFU ABCC12 (11746883_a_at) / Fold change /veh ABCC12 (11746883_a_at) / RFU TMEM136 (11760407_x_at) / Fold change /veh TMEM136 (11760407_x_at) / RFU CLDN22 /// WWC2 (11732394_at) / Fold change /veh CLDN22 /// WWC2 (11732394_at) / RFU HLA-DPB1 (11760878_x_at) / Fold change /veh HLA-DPB1 (11760878_x_at) / RFU SPINT1 (11716480_a_at) / Fold change /veh SPINT1 (11716480_a_at) / RFU GAP43 (11754022_s_at) / Fold change /veh GAP43 (11754022_s_at) / RFU A4GNT (11735810_at) / Fold change /veh A4GNT (11735810_at) / RFU PRB3 (11715151_x_at) / Fold change /veh PRB3 (11715151_x_at) / RFU TUBB4B (11761932_at) / Fold change /veh TUBB4B (11761932_at) / RFU CAPN14 (11732068_a_at) / Fold change /veh CAPN14 (11732068_a_at) / RFU TMCC2 (11721928_a_at) / Fold change /veh TMCC2 (11721928_a_at) / RFU IRGQ (11745062_a_at) / Fold change /veh IRGQ (11745062_a_at) / RFU FAM174B (11720279_a_at) / Fold change /veh FAM174B (11720279_a_at) / RFU TMPRSS4 (11748680_a_at) / Fold change /veh TMPRSS4 (11748680_a_at) / RFU FAM212B (11763350_a_at) / Fold change /veh FAM212B (11763350_a_at) / RFU PLEKHG5 (11743358_a_at) / Fold change /veh PLEKHG5 (11743358_a_at) / RFU ZSCAN30 (11745921_a_at) / Fold change /veh ZSCAN30 (11745921_a_at) / RFU CMKLR1 (11741424_a_at) / Fold change /veh CMKLR1 (11741424_a_at) / RFU LOC101060620 /// MAPK8IP1 (11723275_at) / Fold change /veh LOC101060620 /// MAPK8IP1 (11723275_at) / RFU SPTSSB (11747773_x_at) / Fold change /veh SPTSSB (11747773_x_at) / RFU PRSS12 (11739890_at) / Fold change /veh PRSS12 (11739890_at) / RFU BIN1 (11741810_x_at) / Fold change /veh BIN1 (11741810_x_at) / RFU WNT11 (11732464_a_at) / Fold change /veh WNT11 (11732464_a_at) / RFU C10orf10 (11716521_a_at) / Fold change /veh C10orf10 (11716521_a_at) / RFU C5orf56 (11738089_at) / Fold change /veh C5orf56 (11738089_at) / RFU CYB561 (11721691_x_at) / Fold change /veh CYB561 (11721691_x_at) / RFU ANKRD19P (11752326_a_at) / Fold change /veh ANKRD19P (11752326_a_at) / RFU OR2T12 /// OR2T33 /// OR2T8 (11738714_s_at) / Fold change /veh OR2T12 /// OR2T33 /// OR2T8 (11738714_s_at) / RFU VCAN (11748164_a_at) / Fold change /veh VCAN (11748164_a_at) / RFU JSRP1 (11732532_at) / Fold change /veh JSRP1 (11732532_at) / RFU KRTAP10-11 (11738290_x_at) / Fold change /veh KRTAP10-11 (11738290_x_at) / RFU MYO3A (11730013_a_at) / Fold change /veh MYO3A (11730013_a_at) / RFU EBF3 (11725865_a_at) / Fold change /veh EBF3 (11725865_a_at) / RFU CAMK2N1 (11719241_x_at) / Fold change /veh CAMK2N1 (11719241_x_at) / RFU C5orf56 (11738088_a_at) / Fold change /veh C5orf56 (11738088_a_at) / RFU OLFML3 (11715873_a_at) / Fold change /veh OLFML3 (11715873_a_at) / RFU LOC100653217 /// NTM (11731650_a_at) / Fold change /veh LOC100653217 /// NTM (11731650_a_at) / RFU MAPK11 (11762145_a_at) / Fold change /veh MAPK11 (11762145_a_at) / RFU FIZ1 (11724087_x_at) / Fold change /veh FIZ1 (11724087_x_at) / RFU OASL (11726364_x_at) / Fold change /veh OASL (11726364_x_at) / RFU SOX15 (11748057_x_at) / Fold change /veh SOX15 (11748057_x_at) / RFU CD79A (11719716_a_at) / Fold change /veh CD79A (11719716_a_at) / RFU HIST1H1D (11736915_at) / Fold change /veh HIST1H1D (11736915_at) / RFU CASKIN2 (11723855_a_at) / Fold change /veh CASKIN2 (11723855_a_at) / RFU LOC730098 (11760151_x_at) / Fold change /veh LOC730098 (11760151_x_at) / RFU OR4N2 (11742367_at) / Fold change /veh OR4N2 (11742367_at) / RFU PRRT2 (11749266_a_at) / Fold change /veh PRRT2 (11749266_a_at) / RFU SNX32 (11753110_a_at) / Fold change /veh SNX32 (11753110_a_at) / RFU CDHR5 (11726645_a_at) / Fold change /veh CDHR5 (11726645_a_at) / RFU RCAN1 (11760418_a_at) / Fold change /veh RCAN1 (11760418_a_at) / RFU FAM167A (11723789_a_at) / Fold change /veh FAM167A (11723789_a_at) / RFU FAM26E (11764081_at) / Fold change /veh FAM26E (11764081_at) / RFU ISYNA1 (11749810_s_at) / Fold change /veh ISYNA1 (11749810_s_at) / RFU ACY1 (11761880_at) / Fold change /veh ACY1 (11761880_at) / RFU 11764098_at / Fold change /veh 11764098_at / RFU SAMD14 (11745864_x_at) / Fold change /veh SAMD14 (11745864_x_at) / RFU NPB (11741838_a_at) / Fold change /veh NPB (11741838_a_at) / RFU TMPRSS6 (11731388_a_at) / Fold change /veh TMPRSS6 (11731388_a_at) / RFU KRTAP10-2 (11738614_at) / Fold change /veh KRTAP10-2 (11738614_at) / RFU ARHGAP8 /// PRR5-ARHGAP8 (11727945_x_at) / Fold change /veh ARHGAP8 /// PRR5-ARHGAP8 (11727945_x_at) / RFU KRTAP5-7 /// NADSYN1 (11734609_at) / Fold change /veh KRTAP5-7 /// NADSYN1 (11734609_at) / RFU RASL12 (11751679_a_at) / Fold change /veh RASL12 (11751679_a_at) / RFU CDKN2B (11736163_a_at) / Fold change /veh CDKN2B (11736163_a_at) / RFU PRF1 (11729649_at) / Fold change /veh PRF1 (11729649_at) / RFU, ZNF638 /// ZNF638-IT1 / Fold change vs veh, ZNF638 /// ZNF638-IT1 / RFU, PANK3 / Fold change vs veh, PANK3 / RFU, SH3YL1 / Fold change vs veh, SH3YL1 / RFU, ZEB2 / Fold change vs veh, ZEB2 / RFU, NRIP1 / Fold change vs veh, NRIP1 / RFU, PTTG1IP / Fold change vs veh, PTTG1IP / RFU, CAPN2 / Fold change vs veh, CAPN2 / RFU, MED14 / Fold change vs veh, MED14 / RFU, SNORA58 / Fold change vs veh, SNORA58 / RFU, C1orf63 / Fold change vs veh, C1orf63 / RFU, LRRFIP1 / Fold change vs veh, LRRFIP1 / RFU, NDUFAF7 / Fold change vs veh, NDUFAF7 / RFU, SLC12A2 / Fold change vs veh, SLC12A2 / RFU, IBTK / Fold change vs veh, IBTK / RFU, ESF1 / Fold change vs veh, ESF1 / Fold change vs veh, TMEM50B / RFU, TAOK1 / Fold change vs veh, TAOK1 / RFU, ACBD3 / Fold change vs veh, ACBD3 / RFU, TMA16 / Fold change vs veh, TMA16 / RFU, RWDD3 / Fold change vs veh, RWDD3 / RFU, BCAT1 / Fold change vs veh, BCAT1 / RFU, EDEM3 / Fold change vs veh, EDEM3 / RFU, TMEM33 / Fold change vs veh, TMEM33 / RFU, WDR75 / Fold change vs veh, WDR75 / RFU, AHCTF1 / Fold change vs veh, AHCTF1 / RFU, TFRC / Fold change vs veh, TFRC / RFU, ZDHHC17 / Fold change vs veh, ZDHHC17 / RFU, NOM1 / Fold change vs veh, NOM1 / RFU, ARL8B / Fold change vs veh, ARL8B / RFU, ZBTB11 / Fold change vs veh, ZBTB11 / RFU, TAMM41 / Fold change vs veh, TAMM41 / RFU, KIAA1704 /// LOC100996395 / Fold change vs veh, KIAA1704 /// LOC100996395 / RFU, ING1 / Fold change vs veh, ING1 / RFU, TRMT61B / Fold change vs veh, TRMT61B / RFU, FUBP3 / Fold change vs veh, FUBP3 / RFU, TP53 / Fold change vs veh, TP53 / RFU, TNKS2 / Fold change vs veh, TNKS2 / RFU, ZFP14 / Fold change vs veh, ZFP14 / RFU, ACTR2 / Fold change vs veh, ACTR2 / RFU, PPP3R1 / Fold change vs veh, PPP3R1 / RFU, PIK3R1 / Fold change vs veh, PIK3R1 / RFU, HNRNPA1 / Fold change vs veh, HNRNPA1 / RFU, RNF170 / Fold change vs veh, RNF170 / RFU, ZNF28 / Fold change vs veh, ZNF28 / RFU, RNGTT / Fold change vs veh, RNGTT / RFU, OGT / Fold change vs veh, OGT / RFU, BRD1 / Fold change vs veh, BRD1 / RFU, MARS / Fold change vs veh, MARS / RFU, ZNF655 / Fold change vs veh, ZNF655 / RFU, FAHD1 / Fold change vs veh, FAHD1 / RFU, BDP1 / Fold change vs veh, BDP1 / RFU, LRRCC1 / Fold change vs veh, LRRCC1 / RFU, ARID1A / Fold change vs veh, ARID1A / RFU, ZNF146 / Fold change vs veh, ZNF146 / RFU, ZNF330 / Fold change vs veh, ZNF330 / RFU, GPN3 / Fold change vs veh, GPN3 / RFU, C9orf123 / Fold change vs veh, C9orf123 / RFU, N4BP2L2 / Fold change vs veh, N4BP2L2 / RFU, ARFIP1 / Fold change vs veh, ARFIP1 / RFU, FAM179B / Fold change vs veh, FAM179B / RFU, BCL10 / Fold change vs veh, BCL10 / RFU, UHRF1BP1L / Fold change vs veh, UHRF1BP1L / RFU, BET1 / Fold change vs veh, BET1 / RFU, CNOT2 / Fold change vs veh, CNOT2 / RFU, ZNF268 / Fold change vs veh, ZNF268 / Fold change vs veh, ZNF507 / RFU, DGCR2 / Fold change vs veh, DGCR2 / RFU, WDSUB1 / Fold change vs veh, WDSUB1 / Fold change vs veh, HSP90B1 /// MIR3652 / RFU, ADSS / Fold change vs veh, ADSS / RFU, GK / Fold change vs veh, GK / RFU, ZNF148 / Fold change vs veh, ZNF148 / RFU, TAF9 / Fold change vs veh, TAF9 / RFU, SLC1A5 / Fold change vs veh, SLC1A5 / RFU, SLMO2 / Fold change vs veh, SLMO2 / RFU, ABCC4 / Fold change vs veh, ABCC4 / RFU, LOC101060439 /// RAP1B / Fold change vs veh, LOC101060439 /// RAP1B / RFU, RFX7 / Fold change vs veh, RFX7 / RFU, GTPBP10 / Fold change vs veh, GTPBP10 / RFU, CNEP1R1 / Fold change vs veh, CNEP1R1 / RFU, BIVM-ERCC5 /// ERCC5 / Fold change vs veh, BIVM-ERCC5 /// ERCC5 / RFU, ILF3 / Fold change vs veh, ILF3 / RFU 11762660_at / Fold change /veh 11762660_at / RFU VCAN (11757783_s_at) / Fold change /veh VCAN (11757783_s_at) / RFU DDX43 (11728927_at) / Fold change /veh DDX43 (11728927_at) / RFU KRT8 (11758188_x_at) / Fold change /veh KRT8 (11758188_x_at) / RFU NKD1 (11759106_at) / Fold change /veh NKD1 (11759106_at) / RFU SRD5A1 (11742802_a_at) / Fold change /veh SRD5A1 (11742802_a_at) / RFU TPSAB1 /// TPSB2 (11721975_s_at) / Fold change /veh TPSAB1 /// TPSB2 (11721975_s_at) / RFU GSTM3 (11746129_a_at) / Fold change /veh GSTM3 (11746129_a_at) / RFU IL23R (11737362_x_at) / Fold change /veh IL23R (11737362_x_at) / RFU TMEM51 (11727254_a_at) / Fold change /veh TMEM51 (11727254_a_at) / RFU PIWIL2 (11732686_x_at) / Fold change /veh PIWIL2 (11732686_x_at) / RFU ORM1 (11744905_x_at) / Fold change /veh ORM1 (11744905_x_at) / RFU CCDC152 (11743942_at) / Fold change /veh CCDC152 (11743942_at) / RFU ECM1 (11717891_a_at) / Fold change /veh ECM1 (11717891_a_at) / RFU IL23R (11748794_a_at) / Fold change /veh IL23R (11748794_a_at) / RFU TNFAIP8L3 (11732012_x_at) / Fold change /veh TNFAIP8L3 (11732012_x_at) / RFU MBOAT4 (11741988_at) / Fold change /veh MBOAT4 (11741988_at) / RFU 11764193_at / Fold change /veh 11764193_at / RFU TMEM53 (11763286_at) / Fold change /veh TMEM53 (11763286_at) / RFU MAGEB2 (11727129_at) / Fold change /veh MAGEB2 (11727129_at) / RFU TMEM200A (11744735_a_at) / Fold change /veh TMEM200A (11744735_a_at) / RFU CCDC152 (11751479_a_at) / Fold change /veh CCDC152 (11751479_a_at) / RFU FAM211A (11726209_a_at) / Fold change /veh FAM211A (11726209_a_at) / RFU RGS16 (11746705_a_at) / Fold change /veh RGS16 (11746705_a_at) / RFU VCAN (11755009_s_at) / Fold change /veh VCAN (11755009_s_at) / RFU RHOB (11743442_s_at) / Fold change /veh RHOB (11743442_s_at) / RFU RGS16 (11720943_a_at) / Fold change /veh RGS16 (11720943_a_at) / RFU RGS16 (11720944_at) / Fold change /veh RGS16 (11720944_at) / RFU, VPS4B / Fold change vs veh, VPS4B / RFU, CREB1 / Fold change vs veh, CREB1 / RFU, DNAJC13 / Fold change vs veh, DNAJC13 / RFU, GNAQ / Fold change vs veh, GNAQ / RFU, CDK5R1 / Fold change vs veh, CDK5R1 / RFU, ZRANB3 / Fold change vs veh, ZRANB3 / RFU, CUL4A / Fold change vs veh, CUL4A / RFU, CCNY / Fold change vs veh, CCNY / RFU, UFL1 / Fold change vs veh, UFL1 / RFU, COG3 / Fold change vs veh, COG3 / RFU, DIAPH2 / Fold change vs veh, DIAPH2 / RFU, SKA2 / Fold change vs veh, SKA2 / RFU, AFF3 / Fold change vs veh, AFF3 / RFU, LMF1 / Fold change vs veh, LMF1 / RFU, IPO11 / Fold change vs veh, IPO11 / RFU, DFFB / Fold change vs veh, DFFB / RFU, FOXP1 / Fold change vs veh, FOXP1 / RFU, CARD8 / Fold change vs veh, CARD8 / RFU, STRN3 / Fold change vs veh, STRN3 / RFU, ADK / Fold change vs veh, ADK / RFU, RASSF2 / Fold change vs veh, RASSF2 / RFU, WIPF1 / Fold change vs veh, WIPF1 / RFU, LARP1B / Fold change vs veh, LARP1B / RFU, RASA1 / Fold change vs veh, RASA1 / RFU, RB1 / Fold change vs veh, RB1 / RFU, PPFIA1 / Fold change vs veh, PPFIA1 / RFU, MAT2A / Fold change vs veh, MAT2A / RFU, CCT5 / Fold change vs veh, CCT5 / RFU, WDR92 / Fold change vs veh, WDR92 / RFU, CUX1 / Fold change vs veh, CUX1 / RFU, TTC7A / Fold change vs veh, TTC7A / RFU, TMEM135 / Fold change vs veh, TMEM135 / RFU, DEPTOR / Fold change vs veh, DEPTOR / RFU, CPM / Fold change vs veh, CPM / RFU, DNAJB6 / Fold change vs veh, DNAJB6 / RFU, CACNA2D3 / Fold change vs veh, CACNA2D3 / RFU, DTX4 / Fold change vs veh, DTX4 / RFU, TFCP2 / Fold change vs veh, TFCP2 / RFU, GMCL1 /// GMCL1P1 / Fold change vs veh, GMCL1 /// GMCL1P1 / RFU, AEBP2 / Fold change vs veh, AEBP2 / RFU, SNHG1 /// SNORD22 /// SNORD25 /// SNORD26 /// SNORD27 /// SNORD28 /// SNORD29 /// SNORD31 / Fold change vs veh, SNHG1 /// SNORD22 /// SNORD25 /// SNORD26 /// SNORD27 /// SNORD28 /// SNORD29 /// SNORD31 / Fold change (Aza/veh), C12orf56 (ProbeSet 11735607_a_at) / Fold change (ACY-1035/veh), C12orf56 (ProbeSet 11735607_a_at) / Fold change (Aza/veh), FGFR1OP (ProbeSet 11751329_s_at) / Fold change (ACY-1035/veh), FGFR1OP (ProbeSet 11751329_s_at) / Fold change (Aza/veh), VPS36 (ProbeSet 11739960_a_at) / Fold change (ACY-1035/veh), VPS36 (ProbeSet 11739960_a_at) / RFU SYPL1 (11715823_x_at) / Fold change /veh SYPL1 (11715823_x_at) / RFU IGFBP7 (11715501_s_at) / Fold change /veh IGFBP7 (11715501_s_at) / RFU REEP3 (11722064_at) / Fold change /veh REEP3 (11722064_at) / RFU IGLL1 (11728026_x_at) / Fold change /veh IGLL1 (11728026_x_at): dose or concentration left out as unconfirmed
Conditions: MV-4-11 cells, 48 hours

Nc1ccc(-c2cccs2)cc1NC(=O)c1ccc2c(c1)cc(C1CC1)n2CCN1CCOCC1 [ACY-1035]
RFU CD79A (11719716_a_at): 10.45 RFU
